In publication PMC6679423 (International Journal of Molecular Sciences, 2019):

How the values were obtained:
[1] = biological target: CYP enzymes in human liver microsomes (N-desmethylvandetanib formation) (Homo sapiens, UniProt P08684); experiment: Effects of inhibitors on N-desmethylvandetanib formation in human liver microsomes; settings: human, pH 7.4
Experimental: (§1) After the incubations, 5 µL of 1 mM phenacetine (dissolved in methanol) was added as internal standard. The reaction was stopped by extraction with dichlormethane (2 × 1 mL).
(§2) Inhibition studies in human liver microsomes were essentially conducted as reported previously.

[2] = biological target: CYP enzymes in human liver microsomes (Homo sapiens, UniProt P08684); experiment: as above; settings: inhibitor 50 μM equimolar to vandetanib (50 μM), 0.1 nmol microsomal CYP
Experimental: as §1, §2

[3] = biological target: T1, FMO in human liver microsomes (Homo sapiens, UniProt P31513); experiment: Effects of inhibitors on vandetanib-N-oxide formation in human liver microsomes; type: in vitro ADME; settings: inhibitor 50 μM equimolar to vandetanib (50 μM), 0.25 mg microsomal protein
T1 sequence (P31513 2-532): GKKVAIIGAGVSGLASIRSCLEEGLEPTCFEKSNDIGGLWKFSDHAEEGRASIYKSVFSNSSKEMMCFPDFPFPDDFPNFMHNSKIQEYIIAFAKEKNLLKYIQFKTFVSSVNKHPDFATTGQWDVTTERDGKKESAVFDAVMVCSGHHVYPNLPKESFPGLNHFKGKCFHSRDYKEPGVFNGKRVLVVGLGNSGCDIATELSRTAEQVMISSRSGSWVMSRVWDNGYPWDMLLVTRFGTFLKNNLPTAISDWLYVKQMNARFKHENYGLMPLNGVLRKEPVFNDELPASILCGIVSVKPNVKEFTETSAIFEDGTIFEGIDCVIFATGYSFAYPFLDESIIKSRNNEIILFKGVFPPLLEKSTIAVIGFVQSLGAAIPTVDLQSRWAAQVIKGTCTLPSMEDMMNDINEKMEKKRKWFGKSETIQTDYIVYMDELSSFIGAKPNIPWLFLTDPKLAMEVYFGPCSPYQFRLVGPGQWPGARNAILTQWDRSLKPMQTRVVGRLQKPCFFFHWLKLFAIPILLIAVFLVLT

Chain of CYP enzymes in human liver microsomes (N-desmethylvandetanib formation) (P08684 2-503): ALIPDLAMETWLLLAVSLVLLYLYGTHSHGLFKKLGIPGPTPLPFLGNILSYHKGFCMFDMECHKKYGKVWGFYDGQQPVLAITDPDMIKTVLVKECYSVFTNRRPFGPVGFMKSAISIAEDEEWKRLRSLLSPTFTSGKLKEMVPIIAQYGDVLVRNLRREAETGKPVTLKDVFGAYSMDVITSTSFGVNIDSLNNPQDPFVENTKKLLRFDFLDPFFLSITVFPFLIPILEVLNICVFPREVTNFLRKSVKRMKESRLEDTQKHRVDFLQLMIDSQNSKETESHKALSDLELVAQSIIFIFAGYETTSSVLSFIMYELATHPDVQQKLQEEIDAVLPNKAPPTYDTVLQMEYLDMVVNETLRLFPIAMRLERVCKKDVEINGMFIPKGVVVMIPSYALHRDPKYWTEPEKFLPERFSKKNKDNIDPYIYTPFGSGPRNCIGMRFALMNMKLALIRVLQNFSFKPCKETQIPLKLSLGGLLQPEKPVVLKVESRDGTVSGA
Chain of CYP enzymes in human liver microsomes (N-desmethylvandetanib formation) (P16435 2-677, further chain): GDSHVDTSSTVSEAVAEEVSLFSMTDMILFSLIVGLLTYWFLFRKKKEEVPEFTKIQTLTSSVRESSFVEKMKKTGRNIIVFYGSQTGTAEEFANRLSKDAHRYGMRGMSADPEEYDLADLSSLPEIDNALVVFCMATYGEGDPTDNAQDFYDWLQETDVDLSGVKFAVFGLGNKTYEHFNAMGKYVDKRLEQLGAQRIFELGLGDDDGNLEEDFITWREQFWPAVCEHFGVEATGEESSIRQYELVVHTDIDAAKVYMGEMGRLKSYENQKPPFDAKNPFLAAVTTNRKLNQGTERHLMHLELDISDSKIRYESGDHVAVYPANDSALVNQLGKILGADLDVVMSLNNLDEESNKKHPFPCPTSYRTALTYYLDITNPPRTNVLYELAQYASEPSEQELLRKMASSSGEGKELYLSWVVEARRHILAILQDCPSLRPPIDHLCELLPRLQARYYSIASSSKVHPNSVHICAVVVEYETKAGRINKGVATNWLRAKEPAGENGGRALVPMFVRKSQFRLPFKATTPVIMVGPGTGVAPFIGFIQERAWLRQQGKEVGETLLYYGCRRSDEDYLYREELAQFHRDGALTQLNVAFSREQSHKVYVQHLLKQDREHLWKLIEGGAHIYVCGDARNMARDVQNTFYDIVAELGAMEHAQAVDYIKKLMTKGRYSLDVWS
Chain of CYP enzymes in human liver microsomes (P08684 2-503): as the sequence (P08684 2-503) above
Chain of CYP enzymes in human liver microsomes (P16435 2-677, further chain): as the sequence (P16435 2-677, further chain) above

Row | inhibition at 20 min, 500 µM [1] [%] | SMILES | inhibition at 20 min, 50 µM [1] [%] | % of Inhibition, N-Desmethyvandetanib Formation [2] | % of Inhibition, Vandetanib-N-oxide Formation [3] | % of Inhibition, N-Desmethyvandetanib Formation ([2]; listed as diamantane)
1 | – | CCN(CC)C(=S)S [DDTC, diethyldithiocarbamate] | 0 | no inhibitory effects | no inhibition | –
2 | – | C1C2CC3C4CC5CC(C14)C(C2)C3C5 [Diamantane, diamantane] | – | 0% | – | no inhibitory effects
3 | < 50 | Nc1ccc(S(=O)(=O)Nc2ccnn2-c2ccccc2)cc1 [Sulfaphenazole, sulfaphenazole] | 38 ± 4 | – | – | –
